This note sets out measurements from ChEMBL document CHEMBL4725449, “Brain Penetrable Inhibitors of Ceramide Galactosyltransferase for the Treatment of Lysosomal Storage Disorders” (ACS Med Chem Lett, 2020).

Structures are written as SMILES.

A short description of data set [1]: Half life in Sprague-Dawley rat at 1 mg/kg, iv. Format: ADME, organism-based. To be noted: in vivo.
Data set [2] has as its target T1, 2-hydroxyacylsphingosine 1-beta-galactosyltransferase (Mus musculus, UniProt Q64676).
T1 sequence (Q64676 whole entry): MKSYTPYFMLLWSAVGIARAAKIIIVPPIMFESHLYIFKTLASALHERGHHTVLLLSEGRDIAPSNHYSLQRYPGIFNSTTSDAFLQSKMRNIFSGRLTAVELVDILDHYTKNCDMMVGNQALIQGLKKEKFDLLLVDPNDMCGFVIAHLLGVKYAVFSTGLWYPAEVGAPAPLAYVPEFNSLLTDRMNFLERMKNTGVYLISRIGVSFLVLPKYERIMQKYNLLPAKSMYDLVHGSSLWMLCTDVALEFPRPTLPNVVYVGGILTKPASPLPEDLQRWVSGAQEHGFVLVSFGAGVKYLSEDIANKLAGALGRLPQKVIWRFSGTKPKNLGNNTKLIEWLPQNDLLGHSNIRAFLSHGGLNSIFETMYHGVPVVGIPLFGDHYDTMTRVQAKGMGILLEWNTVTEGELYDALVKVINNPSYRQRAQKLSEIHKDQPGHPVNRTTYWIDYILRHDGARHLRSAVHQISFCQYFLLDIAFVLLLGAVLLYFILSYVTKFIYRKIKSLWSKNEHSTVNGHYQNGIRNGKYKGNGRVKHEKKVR
As to the kind of experiment: Inhibition of mouse UGT8 assessed as redcution in GalCer accumulation.

The subject of the next data set is Mus musculus. Put plainly: (§1) In vivo inhibition of GalCer de novo synthesis in po dosed adult C57BL/6 mouse kidney assessed as reduction in [13C] galactose incorporation into GalCer treated with compound for 1 hr prior to intraperitoneal injection of [13C] galactose measured after 5 hrs of compound administration. Format: functional.
A short description of data set [3]: as §1. The format is functional.
The target in data set [4] is T2, 2-hydroxyacylsphingosine 1-beta-galactosyltransferase (Homo sapiens, UniProt Q16880).
T2 sequence (Q16880 whole entry): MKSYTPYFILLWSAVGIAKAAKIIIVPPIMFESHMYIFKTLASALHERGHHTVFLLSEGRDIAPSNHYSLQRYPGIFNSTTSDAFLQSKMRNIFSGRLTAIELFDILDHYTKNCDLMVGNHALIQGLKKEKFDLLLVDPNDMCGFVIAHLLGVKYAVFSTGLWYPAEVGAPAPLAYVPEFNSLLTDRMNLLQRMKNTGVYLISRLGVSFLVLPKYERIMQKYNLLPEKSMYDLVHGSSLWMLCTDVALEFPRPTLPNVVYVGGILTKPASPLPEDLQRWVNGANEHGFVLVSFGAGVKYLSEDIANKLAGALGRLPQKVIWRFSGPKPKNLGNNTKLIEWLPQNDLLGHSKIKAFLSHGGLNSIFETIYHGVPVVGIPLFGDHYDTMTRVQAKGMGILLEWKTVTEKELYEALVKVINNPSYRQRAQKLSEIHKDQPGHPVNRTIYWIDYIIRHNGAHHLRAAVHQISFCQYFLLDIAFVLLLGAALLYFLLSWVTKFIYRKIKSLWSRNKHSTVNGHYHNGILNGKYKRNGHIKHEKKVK
As to the kind of experiment: Inhibition of UGT8 in human OE19 cells assessed as redcution in GalCer accumulation measured after 72 hrs by LC-MS/MS analysis. The format is cell-based.

The nature of data set [5]: In vivo inhibition of SFT de novo synthesis in po dosed PN14 to PN21 days C57BL/6 mouse brain assessed as reduction in [13C] galactose incorporation into SFT administered twice for 2 days and single dose at day 3 treated 1 hr prior to intraperitoneal injection of [13C] galactose measured after 5 hrs of last dose. The note with it: C57BL/6, 72 h, time 3 day. The format is functional.

Data set [6] is described as follows: AUC (0 to last) in Sprague-Dawley rat at 3 mg/kg, po. Format: ADME, organism-based. Further details: time 0 - last, route oral, dose 3 mg/kg. The note with it: in vivo.
The nature of data set [7]: Tmax in Beagle dog at 3 mg/kg, po. The format is ADME, organism-based, Canis lupus familiaris. The note with it: in vivo.
Data set [8] in a line: Clearance in Sprague-Dawley rat at 1 mg/kg, iv. The note with it: in vivo. Format: ADME, organism-based.
Data set [9] in a line: In vivo inhibition of GalCerde novo synthesis in po dosed PN14 to PN21 days C57BL/6 mouse brain assessed as reduction in [13C] galactose incorporation into GalCer administered twice for 2 days and single dose at day 3 treated 1 hr prior to intraperitoneal injection of [13C] galactose measured after 5 hrs of last dose. Format: functional. To be noted: C57BL/6, 72 h, time 3 day.

A short description of data set [10]: AUC (0 to last) in C57BL/6 mouse at 3 mg/kg, po. The format is ADME, organism-based. To be noted: in vivo. Further details: time 0 - last, route oral, dose 3 mg/kg.
A short description of data set [11]: Clearance in C57BL/6 mouse at 1 mg/kg, iv. The format is ADME, organism-based. To be noted: in vivo.
Data set [12] in a line: Clearance in Beagle dog at 1 mg/kg, iv. Format: ADME, organism-based, Canis lupus familiaris. The note with it: in vivo.
Data set [13] in a line: Ratio of drug concentration in brain to plasma in C57BL/6 mouse measured at 5 mins. Format: ADME, organism-based. The note with it: read-out: BPR.
The nature of data set [14]: In vivo inhibition of SFT de novo synthesis in adult C57BL/6 mouse kidney assessed as reduction in [13C] galactose incorporation into SFT at 30 mg/kg, po via gavage treated with compound for 1 hr prior to intraperitoneal injection of [13C] galactose measured after 5 hrs of compound administration relative to control. The format is functional.
Data set [15] is described as follows: Apparent permeability of the compound at pH 6.5 to 7.4 by PAMPA. The format is ADME.
Data set [16] in a line: In vivo inhibition of SFT de novo synthesis in adult C57BL/6 mouse kidney assessed as reduction in [13C] galactose incorporation into SFT at 3 mg/kg, po via gavage treated with compound for 1 hr prior to intraperitoneal injection of [13C] galactose measured after 5 hrs of compound administration relative to control. Format: functional.
A short description of data set [17]: Thermodynamic solubility of the compound […] at pH 7.4. The format is physicochemical. The note with it: read-out: Therm_solubility.
Data set [18] can be described thus: In vivo inhibition of SFT de novo synthesis in adult C57BL/6 mouse kidney assessed as reduction in [13C] galactose incorporation into SFT at 0.3 mg/kg, po via gavage treated with compound for 1 hr prior to intraperitoneal injection of [13C] galactose measured after 5 hrs of compound administration relative to control. The format is functional.
The nature of data set [19]: Protein binding in C57BL/6 mouse plasma. The note with it: read-out: PPB. Format: ADME, cell-free.
A short description of data set [20]: Oral bioavailability in Sprague-Dawley rat at 3 mg/kg. Format: ADME, organism-based. To be noted: in vivo.

As to `CNC(=O)c1csc2c(C(F)(F)F)cc(N3CCC(OC(=O)N[C@@H](C)COC(F)(F)F)CC3)nc12`, in data set [1], the half-life (as a rule, the time in which the quantity being followed falls by half) was 4.3 h. For the same molecule, the concentration for half-maximal inhibition (IC50) in [2] and in data set [4] was 200 pM in each case. The inhibition entry with Mus musculus is “Dose-dependent effect”. For the same molecule, the results for the ED50 in data set [3], in data set [5] and in [9] were 1 mg/kg, less than 3 mg/kg and less than 3 mg/kg, respectively. Further, the area under the curve AUC(0-t) (in general, the area under the concentration-time curve up to a stated or last time point) in data set [6] came out at 3060 ng·h/mL; in [10], 784 ng·h/mL. The Tmax – broadly, the time from dosing to the highest level – in data set [7] was determined as 1.33 h. Also, the clearance – broadly, the rate of elimination divided by the concentration – in [8] stood at 6.52 mL/min/kg; in data set [11], 24.7 mL/min/kg; in data set [12], 6.32 mL/min/kg. The Kp at 5 min in [13] is 0.69. The inhibition in vivo (in general, how much of the control response was suppressed) at 30 mg/kg in data set [14] was determined as 99%. Also, in data set [15], the Papp (as a rule, a coefficient for how fast a substance crosses the barrier) is greater than 80 ×10⁻⁶ cm/s. In data set [16], the inhibition in vivo at 3 mg/kg came out at 85%. Besides, in [17], the solubility thermodynamic was less than 0.5 µM. Moreover, the inhibition in vivo at 0.3 mg/kg in data set [18] came out at 29%. The fraction unbound in data set [19] was less than 0.01. The bioavailability (commonly the share of a dose that reaches the circulation, judged against a reference dose that is usually intravenous) in [20] was 40%.
